Source: ChEMBL document CHEMBL1132789, “Synthesis and estrogen receptor binding affinities of novel pyrrolo[2,1,5-cd]indolizine derivatives” (Bioorg Med Chem Lett, 2000)

Target: Estrogen receptor (Homo sapiens, UniProt Q92731+P03372)
Description: Inhibitory activity against Estrogen receptor by displacement of [3H]17-beta-estradiol in ER-rich cytosol from rabbit uterine tissue

Row | IC50 | SMILES
1 | 0.18 µM | CCc1c(-c2ccccc2)c2ccc3c(O)ccc1n32
2 | 0.028 µM | Cc1c(-c2ccc(O)cc2)c2ccc3cccc1n32
3 | 1.3 µM | CCc1c(-c2ccccc2)c2ccc3cc(O)cc1n32
4 | 0.005 µM | CCCc1c(-c2ccc(O)cc2)c2ccc3cccc1n32
5 | 0.008 µM | CC(C)c1c(-c2ccc(O)cc2)c2ccc3cccc1n32
6 | 0.012 µM | CCc1c(-c2ccc(O)cc2)c2ccc3ccc(CO)c1n32
7 | 0.0095 µM | CCc1c(-c2ccc(O)cc2)c2ccc3cccc1n32
8 | 0.0009 µM | CCc1c(-c2ccc(O)cc2)c2ccc3cc(O)cc1n32
9 | 0.95 µM | CCCC(C)C1C(c2ccc(O)cc2)=c2ccc3n2C1C=CC=3 (stereo unspecified)
10 | 0.37 µM | CCc1c(-c2cccc(O)c2)c2ccc3cccc1n32
11 | 0.7 µM | Oc1ccc(-c2cc3cccc4ccc2n43)cc1

Row | SMILES | IC50
12 | Oc1ccc(C2=c3ccc4n3C(C=CC=4)C2CCc2ccccc2)cc1 (stereo unspecified) | 0.18 µM
13 | CCCCC1C(c2ccc(O)cc2)=c2ccc3n2C1C=CC=3 (stereo unspecified) | 0.2 µM
14 | CCc1c(-c2ccc(O)cc2)c2ccc3c(O)ccc1n32 | 0.0009 µM
15 | Oc1ccc(C2=c3ccc4n3C3C(=CC=4)CCCC23)cc1 (stereo unspecified) | 0.03 µM
16 | Oc1ccc(C2=c3ccc4n3C3C(=CC=4)CCCCC23)cc1 (stereo unspecified) | 0.025 µM
